Test results: patent publication US6989396B2, “Tropane alkaloid multidrug resistance inhibitors from Erythroxylum pervillei and use of the same” (The Board of Trustees of the University of Illinois, priority 2001, dated 2006)
Values joined by “and” are separate entries in the source; they are usually repeats but may differ in a detail not shown here. Equal values may be shown once.

Key:
CEM/VLB100 cells = assay: MDR reversal in drug-resistant human leukemia CEM/VLB100 cells; type: cell-based; conditions: Homo sapiens; CEM/VLB100 cells; read-out: IC50 value of the cytotoxic drug in the absence of modulator
Procedure: Cytotoxic potential. The cytotoxic potential of test substances with KB-3, KB-V1 and KB-8-5 cells was determined as described previously (24). Briefly, various concentrations of test compounds (dissolved in 10 μl of 10% DMSO) were transferred to 96-well plates, and 190 μl aliquots of cell suspensions (5×10^4 cells/ml) were added to each well. The plates then were incubated for 72 hours at 37° C. (100% humidity with a 5% CO2 atmosphere in air), and 100 μl of cold 20% aqueous trichloroacetic acid were added to the growth medium in each well to fix the cells. The cultures were incubated at 4° C. for 30 minutes, washed, air-dried, stained with sulforhodamine B solution, and washed with 1% acetic acid. […] In each case, a zero-day control was performed by adding an equivalent number of cells to several wells and incubating at 37° C. for 30 minutes, and processing as described above. Optical density values obtained with the zero-day control were subtracted, and cell survival, relative to control (solvent-treated) cultures, was calculated. The cytotoxic potential of the compounds with CEM and CEM/VLB100 cells was determined as described by Beck et al. (30). Cells were grown in 24-well plates at a density of 5–6×10^5 cells/ml. At 48 hours, the cell number was determined using a Coulter Counter, with a channelizer to distinguish cells from debris.

KB-3 cells = assay: Growth inhibitory potential (sulforhodamine B cell survival assay): KB-3; type: cell-based; conditions: Homo sapiens, KB3; 72 hours; read-out: IC50 KB-3
Procedure: One part of a natural product drug discovery program involves monitoring the potential of plant extracts to reverse multiple drug resistance. […] To investigate the potential of plant extracts or compounds to reverse multidrug-resistance, KB-V1 cells are treated with different concentrations of plant extracts or compounds in the presence (1 μg/ml) or absence of vinblastine.
Cytotoxic potential. The cytotoxic potential of test substances with KB-3, KB-V1 and KB-8-5 cells was determined as described previously (24). Briefly, various concentrations of test compounds (dissolved in 10 μl of 10% DMSO) were transferred to 96-well plates, and 190 μl aliquots of cell suspensions (5×10^4 cells/ml) were added to each well. The plates then were incubated for 72 hours at 37° C. (100% humidity with a 5% CO2 atmosphere in air), and 100 μl of cold 20% aqueous trichloroacetic acid were added to the growth medium in each well to fix the cells. The cultures were incubated at 4° C. for 30 minutes, washed, air-dried, stained with sulforhodamine B solution, and washed with 1% acetic acid. Finally, 200 μl of 10 mM Tris base were added to each well and the optical densities were determined at 515 nm utilizing an ELISA plate reader. In each case, a zero-day control was performed by adding an equivalent number of cells to several wells and incubating at 37° C. for 30 minutes, and processing as described above. Optical density values obtained with the zero-day control were subtracted, and cell survival, relative to control (solvent-treated) cultures, was calculated. The cytotoxic potential of the compounds with CEM and CEM/VLB100 cells was determined as described by Beck et al. (30). Cells were grown in 24-well plates at a density of 5–6×10^5 cells/ml. At 48 hours, the cell number was determined using a Coulter Counter, with a channelizer to distinguish cells from debris.

KB-V1 cells [1] = conditions: growth inhibitory effect of vinblastine; cited from earlier work
KB-V1 cells [2] = assay: In vivo hollow fiber test: KB-V1; set-up: species or system NCr nu/nu mice
Procedure: (§1) In vivo hollow fiber test. […] Confluent monolayers of KB-3, KB-V1 or KB-8-5 cells were harvested, collected by centrifugation and resuspended in conditioned medium at a concentration of 7.5×10^5 cells/ml.
(§2) Test compounds were administrated once daily by intraperitoneal injection from day 3–6 after implantation. Body weights were measure daily.
(§3) After incubating at 37° C. for 4 hours, the culture medium was aspirated and the samples were washed twice with normal saline containing 2.5% protamine sulfate solution by overnight incubation at 4° C. […] The formazan was extracted from each sample with DMSO (250 μl/well) for 4 hours at room temperature on a rotation platform.

KB-8-5 cells = assay: In vivo hollow fiber test: KB-8-5; set-up: species or system NCr nu/nu mice; conditions: vinblastine 100 μg/kg; reversing agents 0.136 mmol/kg
Procedure: as §1, §2, §3

For CC[C@]1(O)C[C@@H]2CN(CCc3c([nH]c4ccccc34)[C@@](C(=O)OC)(c3cc4c(cc3OC)N(C)[C@H]3[C@@](O)(C(=O)OC)[C@H](OC(C)=O)[C@]5(CC)C=CCN6CC[C@]43[C@@H]65)C2)C1 [vinblastine, reference compound], the IC50 (CEM/VLB100 cells) is listed as 5000 nM, the IC50 (KB-3 cells) is listed as 40 nM and the “resistance of KB-V1 cells relative to parental KB-3 cells” value (KB-V1 cells [1]) is listed as > 200 fold. For the same compound, the “growth inhibition, administered as single agents” value (KB-V1 cells [2]; KB-V1 or KB-8-5 cells in hollow fibers implanted into NCr nu/nu mice) was “not significantly inhibited”, the “Observed inhibition from coadministration with vinblastine, KB-V1, i.p. site” value (KB-V1 cells [2]; vinblastine 250 μg/kg + reversing agent 0.136 mmol/kg, i.p. injection once daily days 3–6) was 60.3% and the “Growth inhibition, single agent, KB-V1, s.c. site” value (KB-V1 cells [2]; vinblastine 250 μg/kg, reversing agents 0.136 mmol/kg, i.p. injection once daily days 3–6) was 3.8% and 0%. For the same compound, the “Growth inhibition, single agent, KB-8-5, s.c. site” value (KB-8-5 cells) was 2.3%.
